SMILES strings stand for the structures.

Data on two compounds can be found in patent US20110257170A1, “4-MORPHOLINO-PYRIDO[3,2-D]PYRIMIDINES” (MERCK SERONO SA, priority 2008, published 2011).

The subject of data set [1] is T1, Human recombinant GST-PI3K.
T1 construct: fused on or other part: GST tag
In words: PI3K lipid phosphorylation scintillation proximity assay (neomycin-coated SPA beads). The data set is classed as biochemical. The conditions noted are these: 120 min at room temperature, isoform not stated. The source says:
The efficacy of compounds of the invention in inhibiting the PI3K induced-lipid phosphorylation may be tested in the following binding assay. The assay combines the scintillation proximity assay technology (SPA, Amersham) with the capacity of neomycin (a polycationic antibiotic) to bind phospholipids with high affinity and specificity. The Scintillation Proximity Assay is based on the properties of weakly emitting isotopes (such as ^3H, ^125I, ^33P). Coating SPA beads with neomycin allows the detection of phosphorylated lipid substrates after incubation with recombinant PI3K and radioactive ATP in the same well, by capturing the radioactive phospholipids to the SPA beads through their specific binding to neomycin. […] After precipitation of the neomycin-coated PVT SPA beads for 5 minutes at 1500×g, radioactive Ptdlns(3)P is quantified by scintillation counting in a Wallac MicroBeta™ plate counter. […]
On the technique in general: In a scintillation proximity assay essentially only radioactivity close to the scintillant gives light.

`Cc1ccc2nc(Cl)nc(N3CCOCC3)c2n1` [Example E-34, 2-Chloro-6-methyl-4-morpholin-4-ylpyrido[3,2-d]pyrimidine]: the IC50 – broadly, the point on the concentration scale where inhibition reaches its midpoint – in data set [1] is 8.61 µM. As for `COC(=O)c1cc(Cl)c2nc(Cl)nc(N3CCOCC3)c2n1` [Example E-1, Methyl 2,8-dichloro-4-morpholin-4-yl-pyrido[3,2-d]pyrimidine-6-carboxylate], the melting point (in general, the temperature, or range, at which the solid turns liquid) was 212 to 213 °C (dec.).
